Structures are written as SMILES. pIC50, pKi: −log10 of the molar value.

Experimental findings from patent publication US8609852B2, “Thiazolyl mGluR5 antagonists and methods for their use” (Merck Sharp & Dohme Corp., priority 2004, dated 2013) are described below.

Experiment [1] addresses hmGluR5a receptor (Homo sapiens (Human), UniProt P41594). Briefly: Calcium Flux Assay. It is filed as cell-based. Conditions: hmGluR5a/L38-20 cells, glutamate-evoked [Ca2+]i. On the procedure: The activity of compounds was examined against the hmGluR5a receptor stably expressed in mouse fibroblast Ltk− cells (the hmGluR5a/L38-20 cell line). See generally Daggett et al., Neuropharmacology 34:871-886 (1995). Receptor activity was detected by changes in intracellular calcium ([Ca^2+]i) measured using the fluorescent calcium-sensitive dye, fura-2. hmGluR5a/L38-20 cells were plated onto 96-well plates, and loaded with 3 µM fura-2 for 1 h. Unincorporated dye was washed from the cells, and the cell plate was transferred to a custom-built 96-channel fluorimeter (SIBIA-SAIC, La Jolla, Calif.) which is integrated into a fully automated plate handling and liquid delivery system. Cells were excited at 350 and 385 nm with a xenon source combined with optical filters. Emitted light was collected from the sample through a dichroic mirror and a 510 nm interference filter and directed into a cooled CCD camera (Princeton Instruments). Image pairs were captured approximately every 1 s, and ratio images were generated after background subtraction. After a basal reading of 20 s, an EC80 concentration of glutamate ([…]) was added to the well, and the response evaluated for another 60 s. The glutamate-evoked increase in [Ca^2+]i in the presence of the screening compound was compared to the response of glutamate alone (the positive control).

The target of experiment [2] is metabotropic glutamate receptor subtype 5 (Rattus norvegicus (Rat), UniProt P31424). Briefly: [3H]-mGluR5 Antagonist Binding to Rodent Brain Membranes. How it is done: In accordance with Anderson J J, Rao S P, Rowe B, Giracello D R, Holtz G, Chapman D F, Tehrani L, Bradbury M J, Cosford N D, Varney M A, [^3H]Methoxymethyl-3-[(2-methyl-1,3-thiazol-4-yl)ethynyl]pyridine binding to metabotropic glutamate receptor subtype 5 in rodent brain: in vitro and in vivo characterization. J Pharmacol Exp Ther. 2002 December; 303 (3):1044-51, membranes were prepared (as described in Ransom R W and Stec N L (1988) Cooperative modulation of [^3H]MK-801 binding to the N-methyl-D-aspartate receptor-ion channel complex by L-glutamate, glycine, and polyamines. J Neurochem 51:830-836) using whole rat brain, or mGlu5^+/+ or mGlu5^−/− whole mouse brain.
metabotropic glutamate receptor subtype 5, sequence (P31424 21-1203): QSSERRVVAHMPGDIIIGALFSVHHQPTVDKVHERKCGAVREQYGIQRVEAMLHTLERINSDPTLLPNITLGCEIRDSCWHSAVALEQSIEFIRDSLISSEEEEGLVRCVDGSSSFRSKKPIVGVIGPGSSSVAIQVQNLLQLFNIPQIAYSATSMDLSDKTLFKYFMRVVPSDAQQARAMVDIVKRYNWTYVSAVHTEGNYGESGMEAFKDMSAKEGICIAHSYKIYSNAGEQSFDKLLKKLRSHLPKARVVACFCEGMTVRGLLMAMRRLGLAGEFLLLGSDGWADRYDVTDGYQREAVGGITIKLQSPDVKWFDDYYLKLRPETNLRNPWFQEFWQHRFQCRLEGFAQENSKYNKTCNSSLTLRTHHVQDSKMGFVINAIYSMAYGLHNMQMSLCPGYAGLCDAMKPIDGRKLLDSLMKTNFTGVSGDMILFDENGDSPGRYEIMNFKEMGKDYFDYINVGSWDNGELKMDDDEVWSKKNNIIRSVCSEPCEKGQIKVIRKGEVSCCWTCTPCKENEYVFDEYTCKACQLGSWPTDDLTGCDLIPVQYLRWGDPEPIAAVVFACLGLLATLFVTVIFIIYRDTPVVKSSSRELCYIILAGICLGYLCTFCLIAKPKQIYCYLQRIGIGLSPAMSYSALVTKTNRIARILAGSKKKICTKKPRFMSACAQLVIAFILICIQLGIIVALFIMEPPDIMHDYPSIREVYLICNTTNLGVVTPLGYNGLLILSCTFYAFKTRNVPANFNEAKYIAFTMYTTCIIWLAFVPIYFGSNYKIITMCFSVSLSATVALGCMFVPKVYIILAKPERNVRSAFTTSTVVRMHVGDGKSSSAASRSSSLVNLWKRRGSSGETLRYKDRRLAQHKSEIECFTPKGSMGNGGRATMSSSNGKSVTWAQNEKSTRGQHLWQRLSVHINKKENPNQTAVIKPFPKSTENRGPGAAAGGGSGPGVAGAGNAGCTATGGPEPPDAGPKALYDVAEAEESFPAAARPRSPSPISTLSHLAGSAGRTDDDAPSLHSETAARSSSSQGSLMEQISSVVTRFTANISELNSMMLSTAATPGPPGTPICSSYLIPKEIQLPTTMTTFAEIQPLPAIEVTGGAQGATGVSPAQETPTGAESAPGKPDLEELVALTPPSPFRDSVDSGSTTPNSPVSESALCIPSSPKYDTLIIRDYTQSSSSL
Binding assays were performed as described in Schaffhauser H, Richards J G, Cartmell J, Chaboz S, Kemp J A, Klingelschmidt A, Messer J, Stadler H, Woltering T and Mutel V (1998) In vitro binding characteristics of a new selective group II metabotropic glutamate receptor radioligand, [^3H]LY354740, in rat brain. Mol Pharmacol 53:228-233) at room temperature with slight modifications. Briefly, membranes were thawed and washed once with assay buffer (50 mM HEPES, 2 mM MgCl2, pH 7.4), followed by centrifugation at 40,000×g for 20 min. The pellet was resuspended in assay buffer and briefly homogenized with a Polytron.
For protein linearity experiments, increasing concentrations of membrane protein were added to 96-well plates in triplicate and binding was initiated by addition of 20 nM [^3H]methoxymethyl-3-[(2-methyl-1,3-thiazol-4-yl)ethynyl]pyridine. The assay was incubated for 2 h and non-specific binding was determined using 10 μM MPEP. The binding was terminated by rapid filtration through glass-fiber filters (Unifilter-96 GF/B plate, Packard) using a 96-well plate Brandel cell harvester. Following addition of scintillant, the radioactivity was determined by liquid scintillation spectrometry. Protein measurements were performed by BioRad-DC Protein assay using bovine serum albumin as the standard.
Saturation binding experiments were performed in triplicate with increasing concentrations of [^3H]methoxymethyl-3-[(2-methyl-1,3-thiazol-4-yl)ethynyl]pyridine (1 pM to 100 nM). The time course of association was measured by the addition of 10 nM [^3H]methoxymethyl-3-[(2-methyl-1,3-thiazol-4-yl)ethynyl]pyridine to the membranes at different time points (0-240 min), followed by filtration. Dissociation was measured by the addition of 100 μM unlabeled methoxymethyl-3-[(2-methyl-1,3-thiazol-4-yl)ethynyl]pyridine at different time points to membranes previously incubated for 3 h with 10 nM [^3H]methoxymethyl-3-[(2-methyl-1,3-thiazol-4-yl)ethynyl]pyridine. For competition experiments, 100 μg membrane protein and 10 nM [^3H]methoxymethyl-3-[(2-methyl-1,3-thiazol-4-yl)ethynyl]pyridine was added to wells containing increasing concentration of the test compound in duplicate (methoxymethyl-3-[(2-methyl-1,3-thiazol-4-yl)ethynyl]pyridine or MPEP). [^3H]-3-Methoxy-5-(pyridin-2-ylethynyl)pyridine may also be used as the radioligand in the procedure described above. (See, Cosford, N. D. P.; Roppe, J.; Tehrani, L.; Seiders, T. J.; Schweiger, E. J. et al. [3H]-Methoxymethyl-MTEP and [3H]-methoxy-PEPy): Potent and selective radioligands for the Metabotropic Glutamate Subtype 5 (mGlu5) Receptor. Bioorg. Med. Chem. Lett. 2003, 13, 351-354.)

hmGluR5a receptor, sequence (P41594 other isoform, or with tags, fused parts or gaps): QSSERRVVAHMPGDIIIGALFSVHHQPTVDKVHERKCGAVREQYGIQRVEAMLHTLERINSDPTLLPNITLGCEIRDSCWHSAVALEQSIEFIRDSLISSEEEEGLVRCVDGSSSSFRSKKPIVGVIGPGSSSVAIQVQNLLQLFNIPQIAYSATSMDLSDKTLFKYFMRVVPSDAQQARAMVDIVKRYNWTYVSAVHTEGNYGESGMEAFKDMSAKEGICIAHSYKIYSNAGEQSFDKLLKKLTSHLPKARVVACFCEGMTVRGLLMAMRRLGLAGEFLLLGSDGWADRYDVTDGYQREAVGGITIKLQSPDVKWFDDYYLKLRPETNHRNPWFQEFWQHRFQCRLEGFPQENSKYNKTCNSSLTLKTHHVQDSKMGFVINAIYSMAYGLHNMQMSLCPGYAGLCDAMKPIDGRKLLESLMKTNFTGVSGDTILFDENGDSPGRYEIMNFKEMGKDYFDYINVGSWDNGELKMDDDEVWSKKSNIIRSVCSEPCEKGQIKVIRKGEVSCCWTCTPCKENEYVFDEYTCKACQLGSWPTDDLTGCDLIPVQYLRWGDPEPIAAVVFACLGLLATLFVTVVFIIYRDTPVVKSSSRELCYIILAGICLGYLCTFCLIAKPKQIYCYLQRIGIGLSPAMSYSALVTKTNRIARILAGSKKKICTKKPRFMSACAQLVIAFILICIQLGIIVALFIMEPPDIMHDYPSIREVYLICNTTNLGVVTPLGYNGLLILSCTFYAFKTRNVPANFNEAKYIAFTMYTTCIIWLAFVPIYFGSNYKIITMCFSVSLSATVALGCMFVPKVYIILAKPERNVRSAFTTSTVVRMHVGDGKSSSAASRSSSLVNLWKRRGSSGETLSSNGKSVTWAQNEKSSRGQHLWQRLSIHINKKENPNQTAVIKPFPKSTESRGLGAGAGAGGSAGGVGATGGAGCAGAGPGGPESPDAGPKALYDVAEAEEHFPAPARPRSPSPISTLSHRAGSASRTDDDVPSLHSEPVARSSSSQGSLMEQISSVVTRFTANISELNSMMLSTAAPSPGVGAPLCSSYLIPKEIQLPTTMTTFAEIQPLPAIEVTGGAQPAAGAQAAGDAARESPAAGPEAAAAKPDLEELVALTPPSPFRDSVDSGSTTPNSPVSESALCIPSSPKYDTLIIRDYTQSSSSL

By pIC50 is commonly meant the negative decadic logarithm of the IC50, by convention in mol/L. What is called pKi is the Ki on a negative log10 scale, so that one unit is a factor of ten. Read a low pKi as a high Ki. Turning to `Cc1nc(C#Cc2ccc(C(C)(C)C)nc2)cs1` [Example 31, 2-tert-butyl-5-[(2-methyl-1,3-thiazol-4-yl)ethynyl]pyridine], the negative-log IC50 (pIC50) in experiment [1] is 8.54. The same compound showed a pKi in experiment [2] of 7.91.
Turning to `Cc1nc(C#Cc2cnc(C3CCCCC3)nc2)cs1` [Example 32, 2-cyclohexyl-5-[(2-methyl-1,3-thiazol-4-yl)ethynyl]pyrimidine], in experiment [1], the negative-log IC50 (pIC50) was 9.00. Further, the negative logarithm of the Ki (pKi) in experiment [2] was 8.32.
The like results for `Cc1nc(C#Cc2ccc(-c3ccc(F)cc3F)nc2)cs1` [Example 33] were, in that order, 7.72 and 8.15.
The matching figures for `Cc1cc(C#N)cc(-c2ccc(C#Cc3csc(C)n3)cn2)c1` [Example 34]: 7.74 and 7.82.
For the compound `Cc1nc(C#Cc2ccc(-c3cccc4ncccc34)nc2)cs1` [Example 35], the negative logarithm of the IC50 (pIC50) in experiment [1] was 7.77. In experiment [2], the pKi was 8.30.
The matching figures for `Cc1nc(C#Cc2ccc(-c3c(C)cccc3C)nc2)cs1` [Example 36]: 7.85 and 8.52.
The like results for `COc1ccc(C#N)cc1-c1ccc(C#Cc2csc(C)n2)cn1` [Example 37] were, in that order, 7.85 and 8.00.
The matching figures for `Cc1ccc(C)c(-c2ccc(C#Cc3csc(C)n3)cn2)c1` [Example 38]: 7.89 and 8.10.
`Cc1nc(C#Cc2ccc(-n3ccc4ccccc43)nc2)cs1` [Example 39]: in experiment [1], the pIC50 was 7.89. Also, the pKi in experiment [2] is 8.40.
With `Cc1nc(C#Cc2ccc(N3CCSCC3)nc2)cs1` [Example 40], the pIC50 in experiment [1] is 7.92. In experiment [2], this compound had a pKi of 8.05.
The matching figures for `Cc1nc(C#Cc2cncc(Nc3cccnc3)c2)cs1` [Example 41]: 7.96 and 8.30.
The matching figures for `Cc1nc(C#Cc2ccc(NC3CCC3)nc2)cs1` [Example 42]: 7.96 and 7.77.
The like results for `Cc1nc(C#Cc2cncc(-c3cccc(Cl)c3)c2)cs1` [Example 43] were, in that order, 7.96 and 9.19.
In the case of `Cc1nc(C#Cc2ccc(-c3ccccc3CO)nc2)cs1` [Example 44], the pIC50 in experiment [1] was 7.96. Further, the pKi in experiment [2] was 8.70.
For the compound `Cc1nc(C#Cc2ccc(-c3ccc(F)c(F)c3)nc2)cs1` [Example 45], in experiment [1], the pIC50 was 7.96. Moreover, in experiment [2], the pKi was 8.15.
`Cc1nc(C#Cc2ccc(-c3ccc(F)cc3)nc2)cs1` [Example 46]: the negative logarithm of the IC50 (pIC50) in experiment [1] is 7.96. In experiment [2], this compound had a negative logarithm of the Ki (pKi) of 8.70.
With `COc1ccc(C)cc1-c1ccc(C#Cc2csc(C)n2)cn1` [Example 47], the pIC50 in experiment [1] was 7.96. The compound further gave a pKi in experiment [2] of 7.72.
For `Cc1nc(C#Cc2ccc(-c3cc(C#N)ccc3F)nc2)cs1` [Example 48], in experiment [1], the pIC50 was 8.05. This compound also gave a negative logarithm of the Ki (pKi) in experiment [2] of 7.90.
In the case of `Cc1nc(C#Cc2ccc(-c3ccc(F)c(C)c3)nc2)cs1` [Example 49], in experiment [1], the negative logarithm of the IC50 (pIC50) is 8.05. The compound further had a negative-log Ki (pKi) in experiment [2] of 8.26.
The matching figures for `Cc1nc(C#Cc2ccc(N(C)c3ccccn3)nc2)cs1` [Example 50]: 8.05 and 7.92.
The matching figures for `COc1cccc(-c2ccc(C#Cc3csc(C)n3)cn2)c1F` [Example 51]: 8.10 and 8.05.
The matching figures for `Cc1cccc(-c2ccc(C#Cc3csc(C)n3)cn2)c1` [Example 52]: 8.10 and 8.70.
As for `Cc1nc(C#Cc2ccc(N3C4CCC3CC4)nc2)cs1` [Example 53], in experiment [1], the negative logarithm of the IC50 (pIC50) is 8.10. The compound further showed a negative logarithm of the Ki (pKi) in experiment [2] of 8.10.
Take `Cc1ccc(F)c(-c2ccc(C#Cc3csc(C)n3)cn2)c1` [Example 54]: in experiment [1], the negative logarithm of the IC50 (pIC50) was 8.10. Also, the pKi in experiment [2] is 8.82.
The like results for `CCc1ccccc1-c1ccc(C#Cc2csc(C)n2)cn1` [Example 55] were, in that order, 8.15 and 8.40.
The matching figures for `Cc1nc(C#Cc2ccc(-c3cccc(CO)c3)nc2)cs1` [Example 56]: 8.15 and 7.89.
For `Cc1nc(C#Cc2ccc(N3CCCCCC3)nc2)cs1` [Example 57], in experiment [1], the negative-log IC50 (pIC50) is 8.15. Further, the pKi in experiment [2] is 8.12.
As to `Cc1nc(C#Cc2ccc(N3C(C)CCC3C)nc2)cs1` (centres unmarked) [Example 58], in experiment [1], the negative logarithm of the IC50 (pIC50) is 8.15. This compound also showed a negative logarithm of the Ki (pKi) in experiment [2] of 8.82.
As for `CCC(C)(C)Nc1ccc(C#Cc2csc(C)n2)cn1` [Example 59], in experiment [1], the negative logarithm of the IC50 (pIC50) is 8.22. In experiment [2], this compound showed a pKi of 8.40.
The like results for `Cc1nc(C#Cc2ccc(-c3cccc(Cl)c3C)nc2)cs1` [Example 60] were, in that order, 8.22 and 8.82.
The like results for `Cc1nc(C#Cc2ccc(N3CCCC(F)C3)nc2)cs1` (centres unmarked) [Example 61] were, in that order, 8.22 and 7.92.
The like results for `CC[C@H](C)Nc1ccc(C#Cc2csc(C)n2)cn1` [Example 62] were, in that order, 8.22 and 7.96.
Take `Cc1nc(C#Cc2ccc(-c3cccc(C)c3C)nc2)cs1` [Example 63]: the pIC50 in experiment [1] is 8.22. The pKi in experiment [2] is 8.40.
Consider `CSc1ccccc1-c1ccc(C#Cc2csc(C)n2)cn1` [Example 64], for which the pIC50 in experiment [1] was 8.22. In experiment [2], this compound gave a negative-log Ki (pKi) of 9.10.
The like results for `Cc1nc(C#Cc2cncc(-c3ccc(CO)cc3)c2)cs1` [Example 65] were, in that order, 8.22 and 8.10.
`CCC(CC)Nc1ccc(C#Cc2csc(C)n2)cn1` [Example 66]: the negative-log IC50 (pIC50) in experiment [1] is 8.30. For the same compound, the pKi in experiment [2] was 8.05.
Take `Cc1nc(C#Cc2cncc(CCc3ccccc3)c2)cs1` [Example 67]: the negative logarithm of the IC50 (pIC50) in experiment [1] was 8.30. In experiment [2], this compound had a pKi of 8.15.
`CC[C@@H](C)Nc1ccc(C#Cc2csc(C)n2)cn1` [Example 68]: the pIC50 in experiment [1] is 8.30. The negative-log Ki (pKi) in experiment [2] was 8.15.
Consider `Cc1nc(C#Cc2ccc(N3CCCC3)nc2)cs1` [Example 69], for which, in experiment [1], the pIC50 is 8.30. This compound had a negative logarithm of the Ki (pKi) in experiment [2] of 7.85.
For the compound `Cc1nc(C#Cc2ccc(-c3cccc(C#N)c3)nc2)cs1` [Example 70], in experiment [1], the pIC50 is 8.30. In experiment [2], this compound had a pKi of 8.30.
In the case of `COCc1ccccc1-c1ccc(C#Cc2csc(C)n2)cn1` [Example 71], the pIC50 in experiment [1] is 8.30. The pKi in experiment [2] is 8.35.
On to `Cc1nc(C#Cc2ccc(NC(C)(C)C)nc2)cs1` [Example 72], for which, in experiment [1], the pIC50 was 8.30. In experiment [2], the pKi is 8.15.
The matching figures for `Cc1nc(C#Cc2ccc(C3CC4CCC3C4)nc2)cs1` (centres unmarked) [Example 73]: 8.40 and 8.70.
In the case of `Cc1nc(C#Cc2ccc(N3CC4CCC3C4)nc2)cs1` (centres unmarked) [Example 74], the pIC50 in experiment [1] is 8.40. Besides, in experiment [2], the pKi was 8.12.
Turning to `Cc1nc(C#Cc2ccc(C3CCCC3)nc2)cs1` [Example 75], in experiment [1], the negative-log IC50 (pIC50) is 8.40. Also, the pKi in experiment [2] is 8.40.
Regarding `Cc1nc(C#Cc2cncc(C3CC3)c2)cs1` [Example 76], the pIC50 in experiment [1] is 8.46. Besides, the negative-log Ki (pKi) in experiment [2] was 8.52.
